Measurements taken from ChEMBL document CHEMBL1148883, “Hit-to-lead studies on benzimidazole inhibitors of ITK: discovery of a novel class of kinase inhibitors” (Bioorg Med Chem Lett, 2007).
One block for each compound: values may come before it.

Tests used:
[1] = biological target: T1, Tyrosine-protein kinase ITK/TSK (Homo sapiens, UniProt Q08881); assay: Inhibition of human ITK by DELFIA assay
T1 sequence (Q08881 whole entry): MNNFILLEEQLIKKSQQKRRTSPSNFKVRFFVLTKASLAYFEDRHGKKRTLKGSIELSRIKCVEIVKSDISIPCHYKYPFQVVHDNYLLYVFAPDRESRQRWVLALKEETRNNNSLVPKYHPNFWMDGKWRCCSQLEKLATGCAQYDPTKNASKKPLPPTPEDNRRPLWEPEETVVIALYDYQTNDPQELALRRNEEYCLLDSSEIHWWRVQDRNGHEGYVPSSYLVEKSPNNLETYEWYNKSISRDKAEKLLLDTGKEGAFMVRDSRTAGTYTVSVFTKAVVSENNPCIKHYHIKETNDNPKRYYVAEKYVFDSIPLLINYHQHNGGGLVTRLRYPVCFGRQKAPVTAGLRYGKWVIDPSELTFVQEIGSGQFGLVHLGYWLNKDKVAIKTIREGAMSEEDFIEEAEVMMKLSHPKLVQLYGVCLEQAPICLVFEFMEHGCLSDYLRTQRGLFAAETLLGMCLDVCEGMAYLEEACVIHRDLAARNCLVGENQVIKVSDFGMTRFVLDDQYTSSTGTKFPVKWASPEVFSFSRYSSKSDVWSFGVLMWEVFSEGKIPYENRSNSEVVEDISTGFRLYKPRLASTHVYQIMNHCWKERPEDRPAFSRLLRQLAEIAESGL

[2] = biological target: Tyrosine-protein kinase SYK (Homo sapiens) (UniProt P43405); assay: Inhibition of SYK at 10 uM
[3] = biological target: T1, Tyrosine-protein kinase ITK/TSK; assay: Inhibition of human ITK in presence of 20 uM ATP
[4] = biological target: Platelet-derived growth factor receptor (Homo sapiens) (UniProt P09619+P16234); assay: Inhibition of PDGFR at 10 uM; assay type: protein-complex assay
[5] = biological target: T1, Tyrosine-protein kinase ITK/TSK; assay: Inhibition of human ITK in presence of 100 uM ATP
[6] = biological target: Tyrosine-protein kinase Lyn (Homo sapiens, UniProt P07948); assay: Inhibition of LYN
[7] = biological target: T1, Tyrosine-protein kinase ITK/TSK; assay: Effect on human ITK in DT40 cells assessed as […] of calcium influx by FLIPR assay; assay type: cell-based
[8] = biological target: Cyclin-dependent kinase 2 (Homo sapiens) (UniProt P24941); assay: Inhibition of CDK2 at 10 uM
[9] = Inhibition of IRK; set-up: species or system Homo sapiens
[10] = biological target: T1, Tyrosine-protein kinase ITK/TSK; assay: Inhibition of human ITK in presence of 3 uM ATP
[11] = biological target: Vascular endothelial growth factor receptor 1 (Homo sapiens, UniProt P17948); assay: Inhibition of VEGFR1
[12] = biological target: Rho-associated protein kinase 2 (Homo sapiens) (UniProt O75116); assay: Inhibition of ROCK2 at 10 uM
[13] = biological target: Serine/threonine-protein kinase Chk1 (Homo sapiens) (UniProt O14757); assay: Inhibition of CHK1 at 10 uM
[14] = biological target: Tyrosine-protein kinase Tec (Homo sapiens, UniProt P42680); assay: Inhibition of TEC
Ephrin type-A receptor 2 = Ephrin type-A receptor 2 (Homo sapiens, UniProt P29317); assay: Inhibition of ECK
[15] = biological target: Epidermal growth factor receptor (Homo sapiens, UniProt P00533); assay: Inhibition of EGFR
[16] = biological target: Tyrosine-protein kinase TXK (Homo sapiens, UniProt P42681); assay: Inhibition of TXK
[17] = biological target: Protein kinase C beta type (Homo sapiens) (UniProt P05771); assay: Inhibition of PKCbeta at 10 uM
[18] = biological target: MAP kinase-activated protein kinase 2 (Homo sapiens) (UniProt P49137); assay: Inhibition of MAPKAPK2 at 10 uM
[19] = biological target: Cyclin-dependent kinase 5 (Homo sapiens) (UniProt Q00535); assay: Inhibition of CDK5 at 10 uM
[20] = biological target: Hepatocyte growth factor receptor (Homo sapiens, UniProt P08581); assay: Inhibition of HGFR
[21] = biological target: Dual specificity mitogen-activated protein kinase kinase 1 (Homo sapiens) (UniProt Q02750); assay: Inhibition of MKK1 at 10 uM
[22] = biological target: T1, Tyrosine-protein kinase ITK/TSK; assay: Inhibition of human ITK in presence of 500 uM ATP
[23] = biological target: Cytoplasmic tyrosine-protein kinase BMX (Homo sapiens, UniProt P51813); assay: Inhibition of BMX
[24] = biological target: Fibroblast growth factor receptor 3 (Homo sapiens, UniProt P22607); assay: Inhibition of FGFR3
[25] = biological target: Tyrosine-protein kinase BTK (Homo sapiens, UniProt Q06187); assay: Inhibition of BTK
[26] = biological target: Tyrosine-protein kinase JAK3 (Homo sapiens) (UniProt P52333); assay: Inhibition of JAK3 at 10 uM

Chain of MAP kinase-activated protein kinase 2 (Homo sapiens) (P49137 whole entry, looked up): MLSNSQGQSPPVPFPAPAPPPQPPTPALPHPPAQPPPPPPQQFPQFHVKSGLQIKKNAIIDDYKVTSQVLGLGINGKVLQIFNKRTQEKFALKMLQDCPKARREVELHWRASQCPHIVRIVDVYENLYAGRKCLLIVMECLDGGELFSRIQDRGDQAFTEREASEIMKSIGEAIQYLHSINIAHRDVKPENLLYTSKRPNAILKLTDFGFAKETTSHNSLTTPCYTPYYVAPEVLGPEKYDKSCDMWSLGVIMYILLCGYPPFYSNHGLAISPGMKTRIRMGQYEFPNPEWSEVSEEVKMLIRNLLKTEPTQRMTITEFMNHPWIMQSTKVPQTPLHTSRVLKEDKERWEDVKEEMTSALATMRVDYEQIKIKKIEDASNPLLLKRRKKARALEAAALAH
Chain of Vascular endothelial growth factor receptor 1 (P17948 whole entry): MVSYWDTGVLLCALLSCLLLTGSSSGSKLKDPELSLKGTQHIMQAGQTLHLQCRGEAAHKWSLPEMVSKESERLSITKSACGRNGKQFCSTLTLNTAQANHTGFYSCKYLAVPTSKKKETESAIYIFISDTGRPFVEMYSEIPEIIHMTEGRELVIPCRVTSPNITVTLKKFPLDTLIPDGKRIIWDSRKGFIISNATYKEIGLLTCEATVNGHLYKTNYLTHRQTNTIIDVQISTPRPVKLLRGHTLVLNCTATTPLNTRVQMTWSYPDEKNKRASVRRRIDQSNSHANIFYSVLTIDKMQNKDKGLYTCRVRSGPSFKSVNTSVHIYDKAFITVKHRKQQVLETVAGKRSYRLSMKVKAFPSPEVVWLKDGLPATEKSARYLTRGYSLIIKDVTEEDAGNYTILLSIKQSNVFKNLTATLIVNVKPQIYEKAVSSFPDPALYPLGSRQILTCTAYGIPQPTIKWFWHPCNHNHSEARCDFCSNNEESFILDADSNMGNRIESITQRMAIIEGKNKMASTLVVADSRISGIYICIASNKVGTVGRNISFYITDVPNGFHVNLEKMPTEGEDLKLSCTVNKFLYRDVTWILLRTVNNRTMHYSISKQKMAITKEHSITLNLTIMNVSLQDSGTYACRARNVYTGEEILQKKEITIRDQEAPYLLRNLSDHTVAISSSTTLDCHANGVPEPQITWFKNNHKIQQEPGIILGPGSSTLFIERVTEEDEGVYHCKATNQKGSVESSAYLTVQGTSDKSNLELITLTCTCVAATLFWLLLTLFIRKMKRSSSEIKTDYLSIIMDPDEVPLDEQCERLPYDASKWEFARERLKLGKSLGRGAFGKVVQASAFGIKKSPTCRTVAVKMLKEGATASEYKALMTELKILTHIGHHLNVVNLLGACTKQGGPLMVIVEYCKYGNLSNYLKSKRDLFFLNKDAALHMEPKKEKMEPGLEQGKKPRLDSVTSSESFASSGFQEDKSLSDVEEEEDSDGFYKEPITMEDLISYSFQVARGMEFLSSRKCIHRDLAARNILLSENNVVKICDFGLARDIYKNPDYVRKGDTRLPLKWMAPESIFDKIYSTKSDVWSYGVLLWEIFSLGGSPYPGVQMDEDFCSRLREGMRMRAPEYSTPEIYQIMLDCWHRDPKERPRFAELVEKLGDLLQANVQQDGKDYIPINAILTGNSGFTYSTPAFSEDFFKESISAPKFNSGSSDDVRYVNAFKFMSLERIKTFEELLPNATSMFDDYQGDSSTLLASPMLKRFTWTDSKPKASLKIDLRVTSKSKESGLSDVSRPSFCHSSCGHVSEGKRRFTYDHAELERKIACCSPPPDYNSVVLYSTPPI
Chain of Cytoplasmic tyrosine-protein kinase BMX (P51813 whole entry): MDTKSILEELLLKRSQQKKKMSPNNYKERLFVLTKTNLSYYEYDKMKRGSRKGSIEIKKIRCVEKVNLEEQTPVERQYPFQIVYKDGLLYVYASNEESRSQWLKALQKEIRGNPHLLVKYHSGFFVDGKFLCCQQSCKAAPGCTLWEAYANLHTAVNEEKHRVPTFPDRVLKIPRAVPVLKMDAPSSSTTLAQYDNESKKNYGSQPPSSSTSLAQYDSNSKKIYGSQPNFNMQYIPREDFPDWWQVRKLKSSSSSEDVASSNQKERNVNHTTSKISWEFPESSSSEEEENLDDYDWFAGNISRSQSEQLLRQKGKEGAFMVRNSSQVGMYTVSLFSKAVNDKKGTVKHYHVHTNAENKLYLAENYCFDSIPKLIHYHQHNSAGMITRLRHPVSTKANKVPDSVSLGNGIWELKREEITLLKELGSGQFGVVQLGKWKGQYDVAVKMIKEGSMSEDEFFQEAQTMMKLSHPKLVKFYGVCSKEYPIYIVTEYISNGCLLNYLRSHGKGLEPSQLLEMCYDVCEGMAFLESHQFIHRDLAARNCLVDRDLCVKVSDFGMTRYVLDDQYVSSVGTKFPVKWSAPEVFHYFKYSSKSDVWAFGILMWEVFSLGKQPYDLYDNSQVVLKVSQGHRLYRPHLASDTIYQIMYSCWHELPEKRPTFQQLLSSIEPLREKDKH
Chain of Tyrosine-protein kinase Lyn (P07948 whole entry): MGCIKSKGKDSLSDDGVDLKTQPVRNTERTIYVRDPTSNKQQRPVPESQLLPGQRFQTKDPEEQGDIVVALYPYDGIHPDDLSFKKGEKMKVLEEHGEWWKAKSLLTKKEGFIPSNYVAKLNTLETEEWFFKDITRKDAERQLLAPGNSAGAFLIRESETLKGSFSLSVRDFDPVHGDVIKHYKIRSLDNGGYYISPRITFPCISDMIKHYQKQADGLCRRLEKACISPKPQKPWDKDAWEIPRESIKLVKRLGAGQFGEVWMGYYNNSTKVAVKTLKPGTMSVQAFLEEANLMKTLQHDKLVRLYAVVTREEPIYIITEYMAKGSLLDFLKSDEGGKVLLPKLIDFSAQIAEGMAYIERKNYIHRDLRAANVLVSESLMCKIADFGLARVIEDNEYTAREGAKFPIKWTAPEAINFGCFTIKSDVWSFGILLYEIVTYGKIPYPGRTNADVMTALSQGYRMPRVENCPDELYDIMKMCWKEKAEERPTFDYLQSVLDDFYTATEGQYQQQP
Chain of Rho-associated protein kinase 2 (Homo sapiens) (O75116 whole entry, looked up): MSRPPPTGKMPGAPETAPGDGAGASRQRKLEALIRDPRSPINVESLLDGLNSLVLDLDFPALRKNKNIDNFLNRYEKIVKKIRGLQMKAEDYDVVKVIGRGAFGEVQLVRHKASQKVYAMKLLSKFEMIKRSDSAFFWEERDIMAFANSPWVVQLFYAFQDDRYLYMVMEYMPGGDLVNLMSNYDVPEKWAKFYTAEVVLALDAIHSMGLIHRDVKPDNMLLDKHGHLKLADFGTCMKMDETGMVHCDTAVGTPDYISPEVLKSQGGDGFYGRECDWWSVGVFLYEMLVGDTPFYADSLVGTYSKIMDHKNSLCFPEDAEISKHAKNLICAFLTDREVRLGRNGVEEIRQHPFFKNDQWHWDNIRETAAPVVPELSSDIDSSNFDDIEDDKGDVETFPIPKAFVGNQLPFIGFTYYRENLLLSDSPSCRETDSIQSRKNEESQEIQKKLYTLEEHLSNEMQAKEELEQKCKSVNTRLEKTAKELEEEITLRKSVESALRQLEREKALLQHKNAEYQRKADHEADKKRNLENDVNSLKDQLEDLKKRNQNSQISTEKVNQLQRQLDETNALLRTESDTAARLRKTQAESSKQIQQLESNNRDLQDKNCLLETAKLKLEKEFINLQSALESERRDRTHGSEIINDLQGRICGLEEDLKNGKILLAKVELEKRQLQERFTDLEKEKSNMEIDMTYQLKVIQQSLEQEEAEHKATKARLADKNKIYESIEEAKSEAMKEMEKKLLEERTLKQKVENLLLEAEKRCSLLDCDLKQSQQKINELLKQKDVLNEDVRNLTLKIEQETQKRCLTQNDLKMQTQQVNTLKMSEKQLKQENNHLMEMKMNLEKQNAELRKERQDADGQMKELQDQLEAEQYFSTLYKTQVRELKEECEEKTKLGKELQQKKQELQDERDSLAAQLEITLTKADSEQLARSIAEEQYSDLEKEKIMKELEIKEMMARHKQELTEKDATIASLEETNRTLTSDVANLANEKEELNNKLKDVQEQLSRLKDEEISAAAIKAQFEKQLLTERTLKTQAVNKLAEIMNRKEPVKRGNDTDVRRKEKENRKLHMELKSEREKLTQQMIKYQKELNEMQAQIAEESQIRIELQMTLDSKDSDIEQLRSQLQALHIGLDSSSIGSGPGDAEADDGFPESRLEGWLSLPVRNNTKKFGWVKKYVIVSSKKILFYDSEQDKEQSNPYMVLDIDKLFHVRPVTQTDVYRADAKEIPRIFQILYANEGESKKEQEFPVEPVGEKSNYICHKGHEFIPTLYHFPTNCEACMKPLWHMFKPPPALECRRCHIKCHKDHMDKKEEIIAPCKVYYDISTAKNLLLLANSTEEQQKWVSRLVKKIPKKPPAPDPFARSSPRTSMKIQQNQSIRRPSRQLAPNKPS
Chain of Serine/threonine-protein kinase Chk1 (Homo sapiens) (O14757 whole entry): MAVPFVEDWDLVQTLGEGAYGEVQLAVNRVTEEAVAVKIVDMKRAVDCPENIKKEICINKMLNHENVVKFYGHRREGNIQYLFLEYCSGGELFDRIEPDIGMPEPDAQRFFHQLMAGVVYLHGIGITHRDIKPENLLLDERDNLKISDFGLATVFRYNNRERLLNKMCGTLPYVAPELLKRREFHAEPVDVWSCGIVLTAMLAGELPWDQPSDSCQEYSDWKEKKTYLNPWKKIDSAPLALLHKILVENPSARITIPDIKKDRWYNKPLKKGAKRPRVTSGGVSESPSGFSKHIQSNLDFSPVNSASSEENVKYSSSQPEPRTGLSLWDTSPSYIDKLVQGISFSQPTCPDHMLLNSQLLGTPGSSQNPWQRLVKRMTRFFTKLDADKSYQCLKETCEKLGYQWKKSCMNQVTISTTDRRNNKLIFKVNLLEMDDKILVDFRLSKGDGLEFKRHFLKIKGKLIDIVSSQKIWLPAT

IC50 [1]: > 20 µM
Structure (SMILES): NC(=O)CCn1c(NC(=O)c2ccccc2)nc2cc(C(=O)NC3CCCCC3)ccc21

IC50 [1]: > 20 µM
Structure (SMILES): NC(=O)CCn1c(NC(=O)c2ccccc2)nc2cc(C(=O)N(C3CCCCC3)C3CCCCC3)ccc21

IC50 [1]: > 20 µM
Structure (SMILES): NC(=O)CCn1c(NC(=O)c2ccsc2)nc2cc(C(=O)NC3CCCCC3)ccc21

The remaining lines, values behind:

Structure (SMILES): NCCCn1c(NC(=O)c2cccs2)nc2cc(C(=O)OC3CCCCC3)ccc21
IC50 [1]: > 20 µM

Structure (SMILES): CN(C(=O)C1CCCCC1)c1ccc2c(c1)nc(NC(=O)c1cccs1)n2CCCN
inhibition [2]: 6%
IC50 [3]: 0.08 µM
inhibition [4]: 10%
IC50 [5]: 0.24 µM
IC50 [6]: > 10 µM
IC50 [7]: 2.4 µM
inhibition [8]: 7%
IC50 [9]: 0.2 µM
IC50 [10]: 0.025 µM
IC50 [11]: > 10 µM
inhibition [12]: -1%
inhibition [13]: 8%
IC50 [14]: 22 µM
IC50 (Ephrin type-A receptor 2): > 10 µM
IC50 [15]: > 6 µM
IC50 [16]: 1.4 µM
inhibition [17]: 21%
inhibition [18]: 1%
inhibition [19]: -4%
IC50 [20]: > 10 µM
inhibition [21]: -2%
IC50 [22]: 1.1 µM
IC50 [23]: > 22 µM
IC50 [24]: > 6 µM
IC50 [25]: > 22 µM
IC50 [1]: 0.025 µM
inhibition [26]: -7%
